Values quoted from earlier work, collected in US20040096420A1, “Compositions and methods for treating baldness” (priority 2000, published 2004).

Test system: genetic hair loss
Conditions: dosages from 75 to 100 mg per day; Rushton and Ramsay, 1992; Rushton et al. 1991

CC(=O)S[C@@H]1CC2=CC(=O)CC[C@]2(C)[C@H]2CC[C@@]3(C)[C@@H](CC[C@@]34CCC(=O)O4)[C@H]12 [spironolactone]
benefit in hair loss: some benefit
